Measured values published in patent US12344597B2, “Alkoxy-substituted pyridinyl derivatives as LPA1 receptor antagonists and their use in the treatment of fibrosis” (IDORSIA PHARMACEUTICALS LTD, priority 2018, dated 2025).
pIC50: −log10 of the molar value.

target: human LPA1 receptor (Homo sapiens (Human), UniProt Q92633); assay: Beta-arrestin recruitment assay to determine IC50 values for human LPAR1; format: cell-based; settings: antagonist mode, Tango EDG2-bla U2OS cells, LPA 18:1 500 nM final
From the text: Beta-Arrestin Recruitment Assay to Determine IC50 Values for Human LPAR1
The Tango™ EDG2-bla U2OS cells are obtained from Invitrogen. These cells contain the human LPA1 receptor cDNA linked to a TEV protease site and a Gal4-VP16 transcription factor integrated into the Tango™ GPCR-bla U2OS parental cell line. This parental cell line stably expresses a beta-arrestin/TEV protease fusion protein and the beta-lactamase (bla) reporter gene under the control of a UAS response element. Upon LPA (agonist) binding, LPA1 receptor gets activated, leading to arrestin-protease recruitment and proteolytic release of the transcription factor: The transcription factor then regulates transcription of a beta-lactamase reporter construct, which is measured upon addition of the live-cell substrate.
10′000 Tango™ EDG2-bla U2OS cells are seeded in a 384-well black with clear bottom plate in 30 μl Freestyle 293 Expression Medium (Invitrogen) and incubated for 20 h at 37° C., 5% CO2. […] IC50 is the concentration of antagonist inhibiting 50% of the maximal response.

human LPA1 receptor, sequence (Q92633 whole entry): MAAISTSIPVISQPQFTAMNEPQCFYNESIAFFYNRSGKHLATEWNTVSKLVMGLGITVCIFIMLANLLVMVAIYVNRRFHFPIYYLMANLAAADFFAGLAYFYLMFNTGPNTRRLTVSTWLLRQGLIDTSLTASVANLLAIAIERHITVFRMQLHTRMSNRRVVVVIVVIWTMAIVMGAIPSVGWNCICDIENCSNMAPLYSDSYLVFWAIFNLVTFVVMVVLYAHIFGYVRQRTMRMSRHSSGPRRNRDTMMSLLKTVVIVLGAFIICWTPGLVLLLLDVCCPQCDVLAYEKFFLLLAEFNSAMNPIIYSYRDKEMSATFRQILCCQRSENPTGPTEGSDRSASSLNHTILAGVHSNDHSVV

Compound | pIC50
Cc1ccc(NC(=O)C2(c3ccccc3C(C)C)CN(Cc3c[nH]nc3C(=O)O)C2)c(OC(F)F)n1 [Ex 11-38, 4-((3-((2-(difluoromethoxy)-6-methylpyridin-3-yl)carbamoyl)-3-(2-isopropylphenyl)azetidin-1-yl)methyl)-1H-pyrazole-3-carboxylic acid] | 6.57
COC(=O)c1ccc(CN2CC(C(=O)Nc3ccc(C)nc3OC(F)F)(c3ccccc3C(C)C)C2)[nH]1 [Ex 11-43, methyl 5-((3-((2-(difluoromethoxy)-6-methylpyridin-3-yl)carbamoyl)-3-(2-isopropylphenyl)azetidin-1-yl)methyl)-1H-pyrrole-2-carboxylate] | 6.51
Cc1ccc(NC(=O)C2(c3ccccc3C(C)C)CN(Cc3cccc(C(=O)O)n3)C2)c(OC(F)F)n1 [Ex 11-46, 6-((3-((2-(difluoromethoxy)-6-methylpyridin-3-yl)carbamoyl)-3-(2-isopropylphenyl)azetidin-1-yl)methyl)picolinic acid] | 7.77
Cc1ccc(NC(=O)C2(c3ccccc3C(C)C)CN(CCNC(=O)CO)C2)c(OC(F)F)n1 [Ex 11-87, N-(2-(difluoromethoxy)-6-methylpyridin-3-yl)-1-(2-(2-hydroxyacetamido)ethyl)-3-(2-isopropylphenyl)azetidine-3-carboxamide] | 7.59
Cc1ccc(NC(=O)C2(c3ccccc3C(C)C)CN(Cc3coc(C)n3)C2)c(OC(F)F)n1 [Ex 11-21, N-(2-(difluoromethoxy)-6-methylpyridin-3-yl)-3-(2-isopropylphenyl)-1-((2-methyloxazol-4-yl)methyl)azetidine-3-carboxamide] | 7.22
N-(6-ethoxy-2-methoxypyridin-3-yl)-3-(2-isopropylphenyl)azetidine-3-carboxamide [Ex 9] | 6.79
Cc1ccc(NC(=O)C2(c3ccccc3C(C)C)CN(Cc3cnn(C)c3)C2)c(OC(F)F)n1 [Ex 11-23, N-(2-(difluoromethoxy)-6-methylpyridin-3-yl)-3-(2-isopropylphenyl)-1-((1-methyl-1H-pyrazol-4-yl)methyl)azetidine-3-carboxamide] | 6.11
CCOC(=O)CC(C)(C)CN1CC(C(=O)Nc2ccc(C)nc2OC(F)F)(c2ccccc2C(C)C)C1 [Ex 11-32, ethyl 4-(3-((2-(difluoromethoxy)-6-methylpyridin-3-yl)carbamoyl)-3-(2-isopropylphenyl)azetidin-1-yl)-3,3-dimethylbutanoate] | 6.09
Cc1ccc(NC(=O)C2(c3ccccc3C3CCCCC3)CNC2)c(OC(F)F)n1 [Ex 27, 3-(2-cyclohexylphenyl)-N-(2-(difluoromethoxy)-6-methylpyridin-3-yl)azetidine-3-carboxamide] | 7.89
Cc1ccc(NC(=O)C2(c3ccccc3C(C)C)CN(CCC(C)(C)C(N)=O)C2)c(OC(F)F)n1 [Ex 11-93, 1-(4-amino-3,3-dimethyl-4-oxobutyl)-N-(2-(difluoromethoxy)-6-methylpyridin-3-yl)-3-(2-isopropylphenyl)azetidine-3-carboxamide] | 7.19
Cc1ccc(NC(=O)C2(c3ccccc3C(C)C)CN(C(=O)[C@H]3CC[C@@H](C(=O)O)CC3)C2)c(OC(F)F)n1 [Ex 50, (1s,4s)-4-(3-((2-(difluoromethoxy)-6-methylpyridin-3-yl)carbamoyl)-3-(2-isopropylphenyl)azetidine-1-carbonyl)cyclohexane-1-carboxylic acid] | 7.17
Cc1ccc(NC(=O)C2(c3ccccc3C(C)C)CN(C3COC3)C2)c(OC(F)F)n1 [Ex 11-20, N-(2-(difluoromethoxy)-6-methylpyridin-3-yl)-3-(2-isopropylphenyl)-1-(oxetan-3-yl)azetidine-3-carboxamide] | 8.22
Cc1ccc(C2(C(=O)Nc3ccc(C)nc3OC(F)F)CNC2)c(C(C)C)c1 [Ex 35, N-(2-(difluoromethoxy)-6-methylpyridin-3-yl)-3-(2-isopropyl-4-methylphenyl)azetidine-3-carboxamide] | 7.12

Next, values leading:

pIC50 | Compound
8.30 | C=C(C)C(=O)OCCNC(=O)N1CCC(C(=O)Nc2ccc(C)nc2OC(F)F)(c2ccccc2C(C)C)CC1 [Ex 17-21, 2-(4-((2-(difluoromethoxy)-6-methylpyridin-3-yl)carbamoyl)-4-(2-isopropylphenyl)piperidine-1-carboxamido)ethyl methacrylate]
8.22 | COC(=O)C(C)(C)CCNC(=O)N1CC(C(=O)Nc2ccc(C)nc2OC(F)F)(c2ccccc2C(C)C)C1 [Ex 17-18, methyl 4-(3-((2-(difluoromethoxy)-6-methylpyridin-3-yl)carbamoyl)-3-(2-isopropylphenyl)azetidine-1-carboxamido)-2,2-dimethylbutanoate]
7.89 | CC(C)c1ccccc1C1(C(=O)Nc2ncc(Br)cc2OC(F)F)CN(CCC(C)(C)C(=O)O)C1 [Ex 78-3, 4-(3-((5-bromo-3-(difluoromethoxy)pyridin-2-yl)carbamoyl)-3-(2-isopropylphenyl)azetidin-1-yl)-2,2-dimethylbutanoic acid]
7.74 | Cc1ccc(NC(=O)C2(c3ccccc3C(C)C)CN(C(=O)C[C@@H](C)C(=O)O)C2)c(OC(F)F)n1 [Ex 12-80, (R)-4-(3-((2-(difluoromethoxy)-6-methylpyridin-3-yl)carbamoyl)-3-(2-isopropylphenyl)azetidin-1-yl)-2-methyl-4-oxobutanoic acid]
7.77 | Cc1ccc(NC(=O)C2(c3ccccc3C(C)C)CN(C(=O)CN3CC(O)C3)C2)c(OC(F)F)n1 [Ex 12-53, N-(2-(difluoromethoxy)-6-methylpyridin-3-yl)-1-(2-(3-hydroxyazetidin-1-yl)acetyl)-3-(2-isopropylphenyl)azetidine-3-carboxamide]
7.34 | Cc1ccc(NC(=O)C2(c3ccccc3C(C)C)CN(C(=O)CN3CC(=O)NC3=O)C2)c(OC(F)F)n1 [Ex 12-126, N-(2-(difluoromethoxy)-6-methylpyridin-3-yl)-1-(2-(2,4-dioxoimidazolidin-1-yl)acetyl)-3-(2-isopropylphenyl)azetidine-3-carboxamide]
7.39 | CC(C)c1ccccc1C1(C(=O)Nc2cccnc2OC(F)F)CN(c2nc(C(=O)O)co2)C1 [Ex 18-30, 2-(3-((2-(difluoromethoxy)pyridin-3-yl)carbamoyl)-3-(2-isopropylphenyl)azetidin-1-yl)oxazole-4-carboxylic acid]
7.70 | Cc1ccc(NC(=O)C2(c3ccccc3C(C)C)CN(C(=O)CCOCC(=O)OCc3ccccc3)C2)c(OC(F)F)n1 [Ex 12-109, benzyl 2-(3-(3-((2-(difluoromethoxy)-6-methylpyridin-3-yl)carbamoyl)-3-(2-isopropylphenyl)azetidin-1-yl)-3-oxopropoxy)acetate]
7.59 | COC(=O)CCS(=O)(=O)N1CCC(C(=O)Nc2ccc(C)nc2OC(F)F)(c2ccccc2C(C)C)CC1 [Ex 13-6, methyl 3-((4-((2-(difluoromethoxy)-6-methylpyridin-3-yl)carbamoyl)-4-(2-isopropylphenyl)piperidin-1-yl)sulfonyl)propanoate]
7.82 | Cc1ccc(NC(=O)C2(c3ccccc3C(C)C)CN(C(=O)CCCC#N)C2)c(OC(F)F)n1 [Ex 12-1, 1-(4-cyanobutanoyl)-N-(2-(difluoromethoxy)-6-methylpyridin-3-yl)-3-(2-isopropylphenyl)azetidine-3-carboxamide]
7.16 | CC(=O)NS(=O)(=O)N1CC(C(=O)Nc2ccc(C)nc2OC(F)F)(c2ccccc2C(C)C)C1 [Ex 16-1, 1-(N-acetylsulfamoyl)-N-(2-(difluoromethoxy)-6-methylpyridin-3-yl)-3-(2-isopropylphenyl)azetidine-3-carboxamide]
7.47 | COC(=O)[C@@H]1C[C@@H]1C(=O)N1CC(C(=O)Nc2ccc(C)nc2OC(F)F)(c2ccccc2C(C)C)C1 [Ex 12-96, methyl (1R,2S)-2-(3-((2-(difluoromethoxy)-6-methylpyridin-3-yl)carbamoyl)-3-(2-isopropylphenyl)azetidine-1-carbonyl)cyclopropane-1-carboxylate]
7.46 | CC(=O)N(O)CCC(=O)N1CC(C(=O)Nc2ccc(C)nc2OC(F)F)(c2ccccc2C(C)C)C1 [Ex 12-132, N-(2-(difluoromethoxy)-6-methylpyridin-3-yl)-1-(3-(N-hydroxyacetamido)propanoyl)-3-(2-isopropylphenyl)azetidine-3-carboxamide]
8.05 | Cc1ccc(NC(=O)C2(c3ccccc3C(C)C)CCN(C(=O)CNCCO)CC2)c(OC(F)F)n1 [Ex 12-50, N-(2-(difluoromethoxy)-6-methylpyridin-3-yl)-1-((2-hydroxyethyl)glycyl)-4-(2-isopropylphenyl)piperidine-4-carboxamide]
6.73 | Cc1ccc(NC(=O)C2(c3ccccc3C3CCOCC3)CN(C(=O)CC(C)(C)C(=O)O)C2)c(OC(F)F)n1 [Ex 31-6, 4-(3-((2-(difluoromethoxy)-6-methylpyridin-3-yl)carbamoyl)-3-(2-(tetrahydro-2H-pyran-4-yl)phenyl)azetidin-1-yl)-2,2-dimethyl-4-oxobutanoic acid]
7.29 | Cc1ccc(NC(=O)C2(c3c(C)cccc3C(C)C)CN(C(=O)CC(C)(C)C(=O)O)C2)c(OC(F)F)n1 [Ex 39-1, 4-(3-((2-(difluoromethoxy)-6-methylpyridin-3-yl)carbamoyl)-3-(2-isopropyl-6-methylphenyl)azetidin-1-yl)-2,2-dimethyl-4-oxobutanoic acid]
7.89 | Cc1ccc(NC(=O)C2(c3ccccc3C(C)C)CN(C(=O)[C@H]3C[C@H]3C(=O)O)C2)c(OC(F)F)n1 [Ex 12-97, (1R,2S)-2-(3-((2-(difluoromethoxy)-6-methylpyridin-3-yl)carbamoyl)-3-(2-isopropylphenyl)azetidine-1-carbonyl)cyclopropane-1-carboxylic acid]
